In brackets after ≈: the same amount, converted by molar mass. Entries after “also recorded” stand apart in the source; their conditions may differ. Non-standard residues stand in square brackets, D forms with d. Residues, ends and D or L forms follow the SMILES beside them. No end group written: not given here. *: point of attachment. 5FAM = O=C1OC2(c3ccc(O)cc3Oc3cc(O)ccc32)c2ccc(C(=O)*)cc21
Legend:
[1] = Circular dichroism spectroscopy; format: physicochemical; details: CD, 50% TFE (vol/vol), peptide 0.2 mg/mL, room temperature
Description: Peptides were dissolved in ultrapure water or 50% TFE (vol/vol) at a concentration of 0.2 mg/mL for spectroscopy. Spectra of samples in a 1 mm pathlength quartz cuvette were recorded from 180 to 260 nm at 0.5 nm steps using an Applied Photophysics Chirascan Plus CD spectrophotometer operating at room temperature.

[2] = system: MRSA ATCC 33592; test: MIC determination in broth; format: cell-based, Staphylococcus aureus; details: for MIC, S. aureus ATCC 33592 (SCCmec III): Table S5, STIP3 variants, highest conc. tested 100 μg/mL, 2-fold dilution series
Description: (§1) M. luteus ATCC 4698, S. aureus ATCC 29213, a panel of 7 MRSA (ATCC MP-2) strains, which includes ATCC BAA-41, BAA-42, BAA-44, BAA-1683, BAA-2094, BAA-2313, and 33592, and a series of additional bacterial isolates from human and veterinary cases were used in this study (Table S6). Bacterial strains were routinely grown in lysogeny broth (LB: 10 g/L tryptone, 5 g/L yeast extract, 10 g/L NaCl) at 30°C (M. luteus) or 37°C (Staphylococcus spp.) prior to use in specific experiments described below.
(§2) The MICs were measured for bioactive peptides identified from the initial screen. Cation-adjusted Mueller-Hinton (MH) broth was used as the growth medium for MIC determination experiments. Bacterial cultures were diluted to an OD of 5 × 10^−4 (∼10^5 CFU/mL) in 200 μL MH broth mixed with peptides in a 2-fold dilution series arrayed in 96-well plates. Plates were incubated without shaking at 30 or 37°C depending on the organism.

[3] = system: S. aureus ATCC 29213; test: MIC determination in broth; format: cell-based, Staphylococcus aureus; details: STIP3 variants, highest conc. tested 100 μg/mL; cation-adjusted MH broth, ~10^5 CFU/mL, 2-fold dilution series, 37°C, 16 h
Description: as §1, §2

[4] = system: SspA; test: SspA protease resuspended at 2 mg/mL in 100 mM HEPES (pH 7.8); details: 37°C, up to 5 h
[5] = system: M. luteus ATCC 4698; test: MIC determination in broth; format: cell-based, Micrococcus luteus; details: cation-adjusted MH broth, ~10^5 CFU/mL, 30°C, 48 h
Description: as §1, §2

[6] = system: MRSA ATCC BAA-1683; test: MIC determination in broth; format: cell-based, Staphylococcus aureus; details: STIP3 variants, highest conc. tested 100 μg/mL; cation-adjusted MH broth, ~10^5 CFU/mL, 2-fold dilution series, 37°C, 16 h
Description: as §1, §2

[7] = system: MRSA ATCC BAA-2094; test: MIC determination in broth; format: cell-based, Staphylococcus aureus; details: STIP3 variants, highest conc. tested 100 μg/mL; cation-adjusted MH broth, ~10^5 CFU/mL, 2-fold dilution series, 37°C, 16 h
Description: as §1, §2

[8] = system: MRSA ATCC BAA-2313; test: MIC determination in broth; format: cell-based, Staphylococcus aureus; details: STIP3 variants, highest conc. tested 100 μg/mL; cation-adjusted MH broth, ~10^5 CFU/mL, 2-fold dilution series, 37°C, 16 h
Description: as §1, §2

[9] = system: MRSA ATCC BAA-41; test: MIC determination in broth; format: cell-based, Staphylococcus aureus; details: STIP3 variants, highest conc. tested 100 μg/mL; cation-adjusted MH broth, ~10^5 CFU/mL, 2-fold dilution series, 37°C, 16 h
Description: as §1, §2

[10] = system: MRSA ATCC BAA-42; test: MIC determination in broth; format: cell-based, Staphylococcus aureus; details: STIP3 variants, highest conc. tested 100 μg/mL; cation-adjusted MH broth, ~10^5 CFU/mL, 2-fold dilution series, 37°C, 16 h
Description: as §1, §2

[11] = system: MRSA ATCC BAA-44; test: MIC determination in broth; format: cell-based, Staphylococcus aureus; details: STIP3 variants, highest conc. tested 100 μg/mL; cation-adjusted MH broth, ~10^5 CFU/mL, 2-fold dilution series, 37°C, 16 h
Description: as §1, §2

[12] = cation-adjusted MH broth, ~10^5 CFU/mL, 37°C, 16 h

Molecule | MIC, S. aureus ATCC 33592 (SCCmec III) [2, 12] | MIC, S. aureus ATCC 29213 [3] | MIC, S. aureus ATCC BAA 1683 (SCCmec IV) [6] | MIC, S. aureus ATCC BAA 2094 (SCCmec V) [7] | MIC, S. aureus ATCC BAA 2313 (SCCmec XI) [8] | MIC, S. aureus ATCC BAA 41 (SCCmec II) [9] | MIC, S. aureus ATCC BAA 42 (SCCmec VI) [10] | MIC, S. aureus ATCC BAA 44 (SCCmec I) [11] | also measured
CC[C@@H](C)[C@@H](NC(=O)[C@@H](Cc1c[nH]c2ccccc12)NC(=O)[C@@H](CCCCN)NC(=O)[C@H](NC(=O)[C@@H](CC(C)C)NC(=O)CNC(=O)CNC(=O)[C@H](NC(=O)[C@H](NC(=O)c1ccc2c(c1)C(=O)OC21c2ccc(O)cc2Oc2cc(O)ccc21)[C@H](C)O)C(C)C)C(C)C)C(=O)N[C@H](CC(C)C)C(=O)N[C@H](CCCCN)C(=O)N[C@@H](C(=O)N[C@@H](C(=O)N[C@H](CCCCN)C(=O)N[C@H](CCCCN)C(=O)N[C@H](Cc1ccccc1)C(=O)N[C@H](C)C(N)=O)C(C)C)[C@H](C)O [FAM-D-STIP3-29] (5FAM-[dT][dV]GG[dL][dV][dK][dW][dI][dL][dK][dT][dV][dK][dK][dF][dA]-NH2; C-terminus assumed) |  |  |  |  |  |  |  |  | α-Helical content (%) [1]: 55%
CC[C@H](C)[C@H](NC(=O)[C@H](Cc1c[nH]c2ccccc12)NC(=O)[C@H](CCCCN)NC(=O)[C@@H](NC(=O)[C@H](CC(C)C)NC(=O)CNC(=O)CNC(=O)[C@@H](NC(=O)[C@@H](NC(=O)c1ccc2c(c1)C(=O)OC21c2ccc(O)cc2Oc2cc(O)ccc21)[C@@H](C)O)C(C)C)C(C)C)C(=O)N[C@@H](CC(C)C)C(=O)N[C@@H](CCCCN)C(=O)N[C@H](C(=O)N[C@H](C(=O)N[C@@H](CCCCN)C(=O)N[C@@H](CCCCN)C(=O)N[C@@H](Cc1ccccc1)C(=O)N[C@@H](C)C(N)=O)C(C)C)[C@@H](C)O [FAM-L-STIP3-29] (5FAM-TVGGLVKWILKTVKKFA-NH2; C-terminus assumed) |  |  |  |  |  |  |  |  | α-Helical content (%) [1]: 72%
CC[C@H](C)[C@H](NC(=O)[C@H](Cc1c[nH]c2ccccc12)NC(=O)[C@H](CCCCN)NC(=O)[C@@H](NC(=O)[C@H](CC(C)C)NC(=O)CNC(=O)CNC(=O)[C@@H](NC(=O)[C@@H](N)[C@@H](C)O)C(C)C)C(C)C)C(=O)N[C@@H](CC(C)C)C(=O)N[C@H](CCCCN)C(=O)N[C@H](C(=O)N[C@H](C(=O)N[C@@H](CCCCN)C(=O)N[C@@H](CCCCN)C(=O)N[C@@H](Cc1ccccc1)C(=O)N[C@@H](C)C(N)=O)C(C)C)[C@@H](C)O [STIP3-29-D1] (H-TVGGLVKWIL[dK]TVKKFA-NH2; N-terminus assumed) | 25 µg/mL (≈ 13.2 µM) | 12.5 µg/mL (≈ 6.62 µM) |  |  |  |  |  |  | Increase of the MIC relative to STIP3-29 ([2]; D-Lys substituted variants): 4 fold; MIC (μg/mL) for MRSA ATCC 33592 ([2]; Table 1 and text, cation-adjusted MH broth, ~10^5 CFU/mL, 37°C, 16 h): 25 µg/mL; α-Helical content (%) [1]: 51%
MTKDIVETVGGLVKWILDTVKKFA |  |  |  |  |  |  |  |  | fragment found [4]: TVGGLVKWILDTVKKFA; also recorded: TVGGLVKWILD; also recorded: TVKKFA; also recorded: MTKDIVE
TAGGLVKWILDTVKKFA [V2A] |  |  |  |  |  |  |  |  | MIC, M. luteus [5]: 50 µg/mL
TVGGAVKWILDTVKKFA [L5A] |  |  |  |  |  |  |  |  | MIC, M. luteus [5]: 100 µg/mL
TVGGLAKWILDTVKKFA [V6A] |  |  |  |  |  |  |  |  | MIC, M. luteus [5]: 50 µg/mL
TVGGLVKAILDTVKKFA [W8A] |  |  |  |  |  |  |  |  | MIC, M. luteus [5]: 100 µg/mL
TVKGLVKWILATVKKFA [STIP3-16, rationally designed STIP3-1 variant] | 50 µg/mL | 100 µg/mL | > (The > symbol indicates that no inhibition was observed at 100 μg/mL for the STIP3 variants) | 100 µg/mL | 100 µg/mL | 50 µg/mL | 50 µg/mL | 100 µg/mL | 
TVKGLVKWILNVVKKFA [STIP3-14, rationally designed STIP3-1 variant] | 12.5 µg/mL | 25 µg/mL | 25 µg/mL | 50 µg/mL | 12.5 µg/mL | 25 µg/mL | 25 µg/mL | 25 µg/mL | 
TVKGLVKWILNVVKKFA-NH2 [STIP3-30, rationally designed STIP3-1 variant, C-terminal amide] | 12.5 µg/mL | 12.5 µg/mL | 12.5 µg/mL | 25 µg/mL | 25 µg/mL | 25 µg/mL | 25 µg/mL | 12.5 µg/mL | 
TVKKLVKWILKTVKKFA [STIP3-18, rationally designed STIP3-1 variant] | 100 µg/mL | 100 µg/mL | > (The > symbol indicates that no inhibition was observed at 100 μg/mL for the STIP3 variants) | 100 µg/mL | > (The > symbol indicates that no inhibition was observed at 100 μg/mL for the STIP3 variants) | 100 µg/mL | > (The > symbol indicates that no inhibition was observed at 100 μg/mL for the STIP3 variants) | 100 µg/mL | 
TVKVLVKWILKVVAKFA [STIP3-26, rationally designed STIP3-1 variant] | > (The > symbol indicates that no inhibition was observed at 100 μg/mL for the STIP3 variants) | > (The > symbol indicates that no inhibition was observed at 100 μg/mL for the STIP3 variants) | > (The > symbol indicates that no inhibition was observed at 100 μg/mL for the STIP3 variants) | > (The > symbol indicates that no inhibition was observed at 100 μg/mL for the STIP3 variants) | > (The > symbol indicates that no inhibition was observed at 100 μg/mL for the STIP3 variants) | > (The > symbol indicates that no inhibition was observed at 100 μg/mL for the STIP3 variants) | > (The > symbol indicates that no inhibition was observed at 100 μg/mL for the STIP3 variants) | > (The > symbol indicates that no inhibition was observed at 100 μg/mL for the STIP3 variants) | 
TVRALVKWILRTVAKFA [STIP3-20, rationally designed STIP3-1 variant] | 25 µg/mL | 25 µg/mL | 25 µg/mL | 25 µg/mL | 50 µg/mL | 12.5 µg/mL | 25 µg/mL | 25 µg/mL | 
TVRALVRWILRTVARFA [STIP3-23, rationally designed STIP3-1 variant] | 25 µg/mL | 25 µg/mL | 25 µg/mL | 50 µg/mL | 25 µg/mL | 6.25 µg/mL | 50 µg/mL | 25 µg/mL | 
TVXALVXWILXTVAXFA [STIP3-22, rationally designed STIP3-1 variant with L-ornithine] | 25 µg/mL | 25 µg/mL | 25 µg/mL | 25 µg/mL | 100 µg/mL | 25 µg/mL | 25 µg/mL | 25 µg/mL | 
f-MTKDIVETVGGLVKWILDTVKKFA |  |  |  |  |  |  |  |  | not cleaved [4]: no SspA cleavage was observed

— article PMC8694143 (Microbiology Spectrum, 2021)
